Read-outs that look alike come from different tables or passages of the source.
Key:
Assay in all cases: Pull-down assay with immobilized protein and LSM libraries
[1] = molecular target: T1, S100B (Homo sapiens, UniProt P04271); format: binding; settings: 1:1 binding assumed, read-out: Surface mapping KD (apparent)
T1 construct: made in house; host or cells: Escherichia coli BL21(DE3)
T1 sequence (P04271 1-92): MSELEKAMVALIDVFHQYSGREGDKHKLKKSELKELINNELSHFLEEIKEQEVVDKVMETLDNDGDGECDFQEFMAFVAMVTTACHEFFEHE
How it was run: (§1)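 Buffers were HEPES pH 7.4 with 150 mM NaCl, plus 1 mM TCEP and 1 mM CaCl2 (50 mM HEPES) for S100A4 and S100B, 1 mM TCEP for Gal-1, and no additive for RecQ-WH. Immobilized protein at 64 µM was equilibrated 30 min with the LSM sublibrary, and unbound probes were measured by LC-MS.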

[2] = molecular target: T2, S100A4 (Homo sapiens, UniProt P26447); format: binding; settings: 1:1 binding assumed, read-out: Surface mapping KD (apparent)
T2 construct: made in house; host or cells: Escherichia coli BL21(DE3)
T2 sequence (P26447 whole entry): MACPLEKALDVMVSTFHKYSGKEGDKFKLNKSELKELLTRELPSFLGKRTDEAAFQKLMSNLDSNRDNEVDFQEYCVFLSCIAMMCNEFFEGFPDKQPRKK
How it was run: as §1

[3] = molecular target: T3, Gal-1 (Homo sapiens, UniProt P09382); format: binding; settings: 1:1 binding assumed, read-out: Surface mapping KD (apparent)
T3 construct: made in house; host or cells: E. coli BL21(DE3)
T3 sequence (P09382 whole entry): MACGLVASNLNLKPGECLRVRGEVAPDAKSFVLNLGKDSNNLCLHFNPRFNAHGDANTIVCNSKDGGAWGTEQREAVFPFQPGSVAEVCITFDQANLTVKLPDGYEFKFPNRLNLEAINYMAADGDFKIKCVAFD
How it was run: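 His-tagged protein immobilized on Co-NTA resin (64 µM) in 20 mM HEPES pH 7.4, 150 mM NaCl, equilibrated 30 min at room temperature with foldamer LSM sublibraries at equimolar total concentration. Unbound fractions quantified by HPLC-MS versus protein-free resin control; apparent KD assumes 1:1 binding.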

[4] = molecular target: T4, CaM (Bos taurus, UniProt P62157); format: binding, bovine; settings: 1:2 stoichiometry assumed, read-out: Surface mapping KD (apparent)
T4 construct: made in house; host or cells: E. coli BL21 (DE3)
How it was run: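 His-tagged protein immobilized on Co-NTA resin, equilibrated 30 min at room temperature with LSM sublibraries (64 members, […]), equimolar protein to total probe. CaM buffer: 20 mM HEPES pH 7.4, 150 mM NaCl, 5 mM CaCl2. Bound fractions from HPLC-MS loss of unbound probe versus protein-free resin control; Kd derived.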

Row | Compound | Kd ([1]; H12 library) | Kd ([2]; H12 library) | Kd ([3]; H12 library) | Kd ([4]; H12 library) | Kd ([1]; H14 library) | Kd ([2]; H14 library) | Kd ([3]; H14 library) | Kd ([4]; H14 library)
1 | NC(=O)[C@H]1CCC[C@@H]1NC(=O)[C@H]1CCC[C@@H]1NC(=O)C[C@H](Cc1c[nH]c2ccccc12)NC(=O)[C@H]1CCC[C@@H]1NC(=O)[C@H]1CCC[C@@H]1NC(=O)C[C@H](Cc1ccccc1)NC(=O)[C@H]1CCC[C@@H]1NC(=O)[C@H]1CCC[C@@H]1N [H12 FW] | 10 µM | 75 µM | 136 µM | 134 µM |  |  |  | 
2 | CC(C)C[C@@H](CC(=O)N[C@H]1CCC[C@@H]1C(=O)N[C@H]1CCC[C@@H]1C(N)=O)NC(=O)[C@H]1CCC[C@@H]1NC(=O)[C@H]1CCC[C@@H]1NC(=O)C[C@H](Cc1c[nH]c2ccccc12)NC(=O)[C@H]1CCC[C@@H]1NC(=O)[C@H]1CCC[C@@H]1N [H12 WL] | 21 µM | 105 µM | 200 µM | 27 µM |  |  |  | 
3 | N=C(N)NCCC[C@@H](CC(=O)N[C@H]1CCC[C@@H]1C(=O)N[C@H]1CCC[C@@H]1C(=O)N[C@H](CC(=O)N[C@H]1CCC[C@@H]1C(=O)N[C@H]1CCC[C@@H]1C(N)=O)Cc1ccccc1)NC(=O)[C@H]1CCC[C@@H]1NC(=O)[C@H]1CCC[C@@H]1N [H12 RF] | 40 µM | 140 µM | 202 µM | 96 µM |  |  |  | 
4 | CC[C@H](C)[C@@H](CC(=O)N[C@H]1CCC[C@@H]1C(=O)N[C@H]1CCC[C@@H]1C(=O)N[C@H](CC(=O)N[C@H]1CCC[C@@H]1C(=O)N[C@H]1CCC[C@@H]1C(N)=O)Cc1c[nH]c2ccccc12)NC(=O)[C@H]1CCC[C@@H]1NC(=O)[C@H]1CCC[C@@H]1N [H12 IW] | 11 µM | 28 µM | 368 µM | 19 µM |  |  |  | 
5 | CC[C@H](C)[C@@H](CC(=O)N[C@H]1CCC[C@@H]1C(=O)N[C@H]1CCC[C@@H]1C(N)=O)NC(=O)[C@H]1CCC[C@@H]1NC(=O)[C@H]1CCC[C@@H]1NC(=O)C[C@H](CCSC)NC(=O)[C@H]1CCC[C@@H]1NC(=O)[C@H]1CCC[C@@H]1N [H12 MI] | 54 µM | 358 µM | 281 µM | 101 µM |  |  |  | 
6 | CC[C@H](C)[C@@H](CC(=O)N[C@H]1CCC[C@@H]1C(=O)N[C@H]1CCC[C@@H]1C(=O)N[C@H](CC(=O)N[C@H]1CCC[C@@H]1C(=O)N[C@H]1CCC[C@@H]1C(N)=O)C(C)C)NC(=O)[C@H]1CCC[C@@H]1NC(=O)[C@H]1CCC[C@@H]1N [H12 IV] | 57 µM | 373 µM | 463 µM | 270 µM |  |  |  | 
7 | CC(C)C[C@@H](CC(=O)N[C@H]1CCCC[C@@H]1C(=O)N[C@H]1CCCC[C@@H]1C(=O)N[C@@H](CCC(N)=O)CC(=O)N[C@H]1CCCC[C@@H]1C(N)=O)NC(=O)[C@H]1CCCC[C@@H]1N [H14 LQ] |  |  |  |  | 435 µM | 304 µM | 343 µM | 275 µM
8 | CC[C@H](C)[C@@H](CC(=O)N[C@H]1CCC[C@@H]1C(=O)N[C@H]1CCC[C@@H]1C(N)=O)NC(=O)[C@H]1CCC[C@@H]1NC(=O)[C@H]1CCC[C@@H]1NC(=O)C[C@H](Cc1ccccc1)NC(=O)[C@H]1CCC[C@@H]1NC(=O)[C@H]1CCC[C@@H]1N [H12 FI] | 13 µM | 126 µM | 167 µM | 15 µM |  |  |  | 
9 | CC(C)[C@@H](CC(=O)N[C@H]1CCC[C@@H]1C(=O)N[C@H]1CCC[C@@H]1C(=O)N[C@H](CC(=O)N[C@H]1CCC[C@@H]1C(=O)N[C@H]1CCC[C@@H]1C(N)=O)Cc1ccccc1)NC(=O)[C@H]1CCC[C@@H]1NC(=O)[C@H]1CCC[C@@H]1N [H12 VF] | 45 µM | 95 µM | 388 µM | 128 µM |  |  |  | 
10 | CC(C)C[C@@H](CC(=O)N[C@H]1CCC[C@@H]1C(=O)N[C@H]1CCC[C@@H]1C(=O)N[C@H](CC(=O)N[C@H]1CCC[C@@H]1C(=O)N[C@H]1CCC[C@@H]1C(N)=O)Cc1ccccc1)NC(=O)[C@H]1CCC[C@@H]1NC(=O)[C@H]1CCC[C@@H]1N [H12 LF] | 22 µM | 32 µM | 376 µM | 28 µM |  |  |  | 
11 | CC(C)C[C@@H](CC(=O)N[C@H]1CCC[C@@H]1C(=O)N[C@H]1CCC[C@@H]1C(N)=O)NC(=O)[C@H]1CCC[C@@H]1NC(=O)[C@H]1CCC[C@@H]1NC(=O)C[C@H](Cc1ccccc1)NC(=O)[C@H]1CCC[C@@H]1NC(=O)[C@H]1CCC[C@@H]1N [H12 FL] | 14 µM | 83 µM | 114 µM | 205 µM |  |  |  | 
12 | CC[C@H](C)[C@@H](CC(=O)N[C@H]1CCC[C@@H]1C(=O)N[C@H]1CCC[C@@H]1C(N)=O)NC(=O)[C@H]1CCC[C@@H]1NC(=O)[C@H]1CCC[C@@H]1NC(=O)C[C@@H](NC(=O)[C@H]1CCC[C@@H]1NC(=O)[C@H]1CCC[C@@H]1N)C(C)C [H12 VI] | 92 µM | 190 µM | 469 µM | 164 µM |  |  |  | 
13 | CC[C@H](C)[C@@H](CC(=O)N[C@H]1CCC[C@@H]1C(=O)N[C@H]1CCC[C@@H]1C(N)=O)NC(=O)[C@H]1CCC[C@@H]1NC(=O)[C@H]1CCC[C@@H]1NC(=O)C[C@H](Cc1c[nH]c2ccccc12)NC(=O)[C@H]1CCC[C@@H]1NC(=O)[C@H]1CCC[C@@H]1N [H12 WI] | 18 µM | 164 µM | 174 µM | 134 µM |  |  |  | 
14 | CC(C)[C@@H](CC(=O)N[C@H]1CCC[C@@H]1C(=O)N[C@H]1CCC[C@@H]1C(N)=O)NC(=O)[C@H]1CCC[C@@H]1NC(=O)[C@H]1CCC[C@@H]1NC(=O)C[C@H](Cc1ccccc1)NC(=O)[C@H]1CCC[C@@H]1NC(=O)[C@H]1CCC[C@@H]1N [H12 FV] | 46 µM | 207 µM | 170 µM | 157 µM |  |  |  | 
15 | N=C(N)NCCC[C@@H](CC(=O)N[C@H]1CCC[C@@H]1C(=O)N[C@H]1CCC[C@@H]1C(=O)N[C@H](CC(=O)N[C@H]1CCC[C@@H]1C(=O)N[C@H]1CCC[C@@H]1C(N)=O)Cc1c[nH]c2ccccc12)NC(=O)[C@H]1CCC[C@@H]1NC(=O)[C@H]1CCC[C@@H]1N [H12 RW] | 25 µM | 95 µM | 126 µM | 19 µM |  |  |  | 
16 | CC(C)[C@@H](CC(=O)N[C@H]1CCC[C@@H]1C(=O)N[C@H]1CCC[C@@H]1C(=O)N[C@H](CC(=O)N[C@H]1CCC[C@@H]1C(=O)N[C@H]1CCC[C@@H]1C(N)=O)Cc1c[nH]c2ccccc12)NC(=O)[C@H]1CCC[C@@H]1NC(=O)[C@H]1CCC[C@@H]1N [H12 VW] | 31 µM | 184 µM | 346 µM | 56 µM |  |  |  | 
17 | CC(C)C[C@@H](CC(=O)N[C@H]1CCC[C@@H]1C(=O)N[C@H]1CCC[C@@H]1C(=O)N[C@@H](CCCNC(=N)N)CC(=O)N[C@H]1CCC[C@@H]1C(=O)N[C@H]1CCC[C@@H]1C(N)=O)NC(=O)[C@H]1CCC[C@@H]1NC(=O)[C@H]1CCC[C@@H]1N [H12 LR] | 29 µM | 345 µM | 120 µM | 236 µM |  |  |  | 
18 | CC(C)C[C@@H](CC(=O)N[C@H]1CCC[C@@H]1C(=O)N[C@H]1CCC[C@@H]1C(=O)N[C@H](CC(=O)N[C@H]1CCC[C@@H]1C(=O)N[C@H]1CCC[C@@H]1C(N)=O)Cc1c[nH]c2ccccc12)NC(=O)[C@H]1CCC[C@@H]1NC(=O)[C@H]1CCC[C@@H]1N [H12 LW] | 11 µM | 28 µM | 368 µM | 19 µM |  |  |  | 
19 | CC(C)[C@@H](CC(=O)N[C@H]1CCC[C@@H]1C(=O)N[C@H]1CCC[C@@H]1C(=O)N[C@H](CC(=O)N[C@H]1CCC[C@@H]1C(=O)N[C@H]1CCC[C@@H]1C(N)=O)Cc1ccc(O)cc1)NC(=O)[C@H]1CCC[C@@H]1NC(=O)[C@H]1CCC[C@@H]1N [H12 VY] | 210 µM | 392 µM | 413 µM | 247 µM |  |  |  | 
20 | NCCCC[C@@H](CC(=O)N[C@H]1CCC[C@@H]1C(=O)N[C@H]1CCC[C@@H]1C(=O)N[C@H](CC(=O)N[C@H]1CCC[C@@H]1C(=O)N[C@H]1CCC[C@@H]1C(N)=O)Cc1c[nH]c2ccccc12)NC(=O)[C@H]1CCC[C@@H]1NC(=O)[C@H]1CCC[C@@H]1N [H12 KW] | 39 µM | 456 µM | 161 µM | 51 µM |  |  |  | 
21 | CC(C)C[C@@H](CC(=O)N[C@H]1CCC[C@@H]1C(=O)N[C@H]1CCC[C@@H]1C(N)=O)NC(=O)[C@H]1CCC[C@@H]1NC(=O)[C@H]1CCC[C@@H]1NC(=O)C[C@@H](NC(=O)[C@H]1CCC[C@@H]1NC(=O)[C@H]1CCC[C@@H]1N)C(C)C [H12 VL] | 92 µM | 190 µM | 469 µM | 164 µM |  |  |  | 
22 | NC(=O)[C@H]1CCC[C@@H]1NC(=O)[C@H]1CCC[C@@H]1NC(=O)C[C@H](Cc1ccccc1)NC(=O)[C@H]1CCC[C@@H]1NC(=O)[C@H]1CCC[C@@H]1NC(=O)C[C@H](Cc1c[nH]c2ccccc12)NC(=O)[C@H]1CCC[C@@H]1NC(=O)[C@H]1CCC[C@@H]1N [H12 WF] | 7 µM | 135 µM | 117 µM | 9 µM |  |  |  | 
23 | CC[C@H](C)[C@@H](CC(=O)N[C@H]1CCC[C@@H]1C(=O)N[C@H]1CCC[C@@H]1C(=O)N[C@H](CC(=O)N[C@H]1CCC[C@@H]1C(=O)N[C@H]1CCC[C@@H]1C(N)=O)Cc1ccc(O)cc1)NC(=O)[C@H]1CCC[C@@H]1NC(=O)[C@H]1CCC[C@@H]1N [H12 IY] | 56 µM | 100 µM | 347 µM | 28 µM |  |  |  | 

Source: PMC8162404, “Proteomimetic surface fragments distinguish targets by function” (Chemical Science, 2020)
